Experimental data reported in PubChem BioAssay (NCI).
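Step 1: Grow cells in 96-well plates. Step 2: Expose to compound for 48 hours at 5 concentrations. Step 3: Interpolate endpoints linearly; if unreached, use highest concentration. The concentration for full growth arrest is given as TGI.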

How the values were obtained:
Assay in all cases: NCI tumour cell line growth inhibition, 48 h
[1] = test system: 786-0 renal
[2] = test system: A498 renal
[3] = test system: A549 NSCLC
[4] = test system: ACHN renal
[5] = test system: CAKI-1 renal
[6] = test system: CCRF-CEM leukemia
[7] = test system: COLO 205 colon
[8] = test system: DLD-1 colon
[9] = test system: DMS 114 small cell lung
[10] = test system: DMS 273 small cell lung
[11] = test system: EKVX NSCLC
[12] = test system: HCC-2998 colon
[13] = test system: HCT-116 colon
[14] = test system: HCT-15 colon
[15] = test system: HL-60(TB) leukemia
[16] = test system: HOP-18 NSCLC
[17] = test system: HOP-62 NSCLC
[18] = test system: HOP-92 NSCLC
[19] = test system: HT29 colon
[20] = test system: IGROV1 ovarian
[21] = test system: K-562 leukemia
[22] = test system: KM12 colon
[23] = test system: KM20L2 colon
[24] = test system: LOX IMVI melanoma
[25] = test system: M14 melanoma
[26] = test system: M19-MEL melanoma
[27] = test system: MALME-3M melanoma
[28] = test system: MOLT-4 leukemia
[29] = test system: NCI-H226 lung
[30] = test system: NCI-H23 lung
[31] = test system: NCI-H460 lung
[32] = test system: NCI-H522 lung
[33] = test system: OVCAR-3 ovarian
[34] = test system: OVCAR-4 ovarian
[35] = test system: OVCAR-5 ovarian
[36] = test system: OVCAR-8 ovarian
[37] = test system: RPMI-8226 leukemia
[38] = test system: RXF 393 renal
[39] = test system: SF-268 CNS
[40] = test system: SF-295 CNS
[41] = test system: SF-539 CNS
[42] = test system: SK-MEL-2 melanoma
[43] = test system: SK-MEL-28 melanoma
[44] = test system: SK-MEL-5 melanoma
[45] = test system: SK-OV-3 ovarian
[46] = test system: SN12C renal
[47] = test system: SNB-19 CNS
[48] = test system: SNB-75 CNS
[49] = test system: SNB-78 CNS
[50] = test system: SR leukemia
[51] = test system: SW-620 colon
[52] = test system: TK-10 renal
[53] = test system: U251 CNS
[54] = test system: UACC-257 melanoma
[55] = test system: UACC-62 melanoma
[56] = test system: UO-31 renal
[57] = test system: XF 498 CNS
[58] = test system: LXFL 529 NSCLC
[59] = test system: RXF-631 renal
[60] = test system: BT-549 breast
[61] = test system: DU-145 prostate
[62] = test system: HS 578T breast
[63] = test system: MCF7 breast
[64] = test system: MDA-MB-435
[65] = test system: MDA-N
[66] = test system: NCI/ADR-RES ovarian
[67] = test system: PC-3 prostate
[68] = test system: T-47D breast

## CCOC(=O)C1=C(O)c2c(OC)ccc(OC)c2C(=O)C1=O
[1]
  TGI: > 100 µM
[2]
  TGI: > 100 µM
[3]
  TGI: > 100 µM
[4]
  TGI: > 100 µM
[5]
  TGI: > 100 µM
[6]
  TGI: > 100 µM
[7]
  TGI: > 100 µM
[8]
  TGI: > 100 µM
[9]
  TGI: > 100 µM
[10]
  TGI: > 100 µM
[11]
  TGI: > 100 µM
[12]
  TGI: > 100 µM
[13]
  TGI: > 100 µM
[14]
  TGI: > 100 µM
[15]
  TGI: > 100 µM
[16]
  TGI: > 100 µM
[17]
  TGI: > 100 µM
[18]
  TGI: > 100 µM
[19]
  TGI: > 100 µM
[20]
  TGI: > 100 µM
[21]
  TGI: > 100 µM
[22]
  TGI: > 100 µM
[23]
  TGI: > 100 µM
[24]
  TGI: > 100 µM
[25]
  TGI: > 100 µM
[26]
  TGI: > 100 µM
[27]
  TGI: > 100 µM
[28]
  TGI: > 100 µM
[29]
  TGI: > 100 µM
[30]
  TGI: > 100 µM
[31]
  TGI: > 100 µM
[32]
  TGI: > 100 µM
[33]
  TGI: > 100 µM
[34]
  TGI: > 100 µM
[35]
  TGI: > 100 µM
[36]
  TGI: > 100 µM
[37]
  TGI: > 100 µM
[38]
  TGI: > 100 µM
[39]
  TGI: > 100 µM
[40]
  TGI: > 100 µM
[41]
  TGI: > 100 µM
[42]
  TGI: > 100 µM
[43]
  TGI: > 100 µM
[44]
  TGI: > 100 µM
[45]
  TGI: > 100 µM
[46]
  TGI: > 100 µM
[47]
  TGI: > 100 µM
[48]
  TGI: > 100 µM
[49]
  TGI: > 100 µM
[50]
  TGI: > 100 µM
[51]
  TGI: > 100 µM
[52]
  TGI: > 100 µM
[53]
  TGI: > 100 µM
[54]
  TGI: > 100 µM
[55]
  TGI: > 100 µM
[56]
  TGI: > 100 µM
[57]
  TGI: > 100 µM

## Nc1nc(N)c(-c2ccccc2)c(C(=O)Nc2nccs2)n1
[1]
  TGI: > 100 µM
[3]
  TGI: > 100 µM
[4]
  TGI: > 100 µM
[5]
  TGI: > 100 µM
[6]
  TGI: > 100 µM
[7]
  TGI: > 100 µM
[8]
  TGI: > 100 µM
[9]
  TGI: > 100 µM
[11]
  TGI: > 100 µM
[12]
  TGI: > 100 µM
[13]
  TGI: > 100 µM
[14]
  TGI: > 100 µM
[15]
  TGI: > 100 µM
[16]
  TGI: > 100 µM
[17]
  TGI: > 100 µM
[18]
  TGI: > 100 µM
[19]
  TGI: > 100 µM
[20]
  TGI: > 100 µM
[21]
  TGI: > 100 µM
[22]
  TGI: > 100 µM
[23]
  TGI: > 100 µM
[24]
  TGI: > 100 µM
[58]
  TGI: > 100 µM
[25]
  TGI: > 100 µM
[26]
  TGI: > 100 µM
[27]
  TGI: > 100 µM
[28]
  TGI: > 100 µM
[29]
  TGI: > 100 µM
[30]
  TGI: > 100 µM
[31]
  TGI: > 100 µM
[33]
  TGI: > 100 µM
[34]
  TGI: > 100 µM
[35]
  TGI: > 100 µM
[36]
  TGI: > 100 µM
[38]
  TGI: > 100 µM
[59]
  TGI: > 100 µM
[39]
  TGI: > 100 µM
[40]
  TGI: > 100 µM
[41]
  TGI: > 100 µM
[42]
  TGI: > 100 µM
[43]
  TGI: > 100 µM
[44]
  TGI: > 100 µM
[45]
  TGI: > 100 µM
[46]
  TGI: > 100 µM
[47]
  TGI: > 100 µM
[49]
  TGI: > 100 µM
[51]
  TGI: > 100 µM
[52]
  TGI: > 100 µM
[53]
  TGI: > 100 µM
[54]
  TGI: > 100 µM
[55]
  TGI: > 100 µM
[56]
  TGI: > 100 µM

## COC(=O)c1ccccc1NCc1cc(O)ccc1O
[1]
  TGI: 31.7 µM
[2]
  TGI: > 89.2 µM
[3]
  TGI: > 83.1 µM
[4]
  TGI: 29.8 µM
[60]
  TGI: 15 µM
[5]
  TGI: 44.6 µM
[6]
  TGI: > 46.3 µM
[7]
  TGI: 34 µM
[8]
  TGI: 43 µM
[10]
  TGI: > 100 µM
[61]
  TGI: > 100 µM
[11]
  TGI: > 68.1 µM
[12]
  TGI: > 55.7 µM
[13]
  TGI: 35.2 µM
[14]
  TGI: 41.1 µM
[15]
  TGI: > 42.8 µM
[16]
  TGI: 27.6 µM
[17]
  TGI: > 71.4 µM
[18]
  TGI: 35.3 µM
[62]
  TGI: 61.5 µM
[19]
  TGI: 44.2 µM
[20]
  TGI: > 63.4 µM
[21]
  TGI: > 59 µM
[22]
  TGI: 53.2 µM
[23]
  TGI: > 100 µM
[24]
  TGI: 32 µM
[58]
  TGI: 32.9 µM
[25]
  TGI: 17.1 µM
[26]
  TGI: 31.7 µM
[27]
  TGI: 36.3 µM
[63]
  TGI: 38 µM
[64]
  TGI: 34.2 µM
[65]
  TGI: 31.8 µM
[28]
  TGI: 76.9 µM
[29]
  TGI: 65.3 µM
[30]
  TGI: > 68.5 µM
[31]
  TGI: > 31.6 µM
[32]
  TGI: 6.75 µM
[66]
  TGI: 62.5 µM
[33]
  TGI: 32.5 µM
[34]
  TGI: 34.9 µM
[35]
  TGI: > 62.1 µM
[36]
  TGI: 34.5 µM
[67]
  TGI: 33.6 µM
[37]
  TGI: 96.9 µM
[38]
  TGI: 30.3 µM
[39]
  TGI: > 77.4 µM
[40]
  TGI: 33.3 µM
[41]
  TGI: 34.9 µM
[42]
  TGI: 58.3 µM
[43]
  TGI: 35.4 µM
[44]
  TGI: 38.9 µM
[45]
  TGI: > 100 µM
[46]
  TGI: 36.9 µM
[47]
  TGI: > 74.1 µM
[48]
  TGI: > 75.9 µM
[49]
  TGI: 66.6 µM
[51]
  TGI: 52 µM
[68]
  TGI: 31.8 µM
[52]
  TGI: > 57.6 µM
[53]
  TGI: 40.1 µM
[54]
  TGI: 31.2 µM
[55]
  TGI: 45.5 µM
[56]
  TGI: 31.9 µM
[57]
  TGI: 33.1 µM
